Two compounds from ChEMBL document CHEMBL2021868, “Synthesis and evaluation of [¹⁸F]fluororasagiline, a novel positron emission tomography (PET) radioligand for monoamine oxidase B (MAO-B)” (Bioorg Med Chem, 2012) can be followed below.

For series [1], the system named is Plasma. The series can be described thus: Drug metabolism in cynomolgus monkey plasma assessed as [18F]a metabolite retention time at 163 Mbq, iv measured by HPLC analysis. Format: ADME, organism-based, Macaca fascicularis. Particulars: in vivo; call rule not given here.
Series [2] has as its system Brain. The experiment in a line: Drug uptake in cynomolgus monkey brain at 163 MBq, iv measured after wash out. Format: ADME, organism-based, Macaca fascicularis. Particulars: in vivo.
The subject of series [3] is Plasma. The series can be described thus: Drug metabolism in cynomolgus monkey plasma assessed as formation of [18F]fluoroaminoindan metabolite at 163 Mbq, iv by HPLC analysis in presence of non-radioactive compound. As to conditions: in vivo. Format: ADME, organism-based, Macaca fascicularis.
The target in series [4] is T1, Amine oxidase [flavin-containing] B (Homo sapiens, UniProt P27338).
T1 sequence (P27338 whole entry): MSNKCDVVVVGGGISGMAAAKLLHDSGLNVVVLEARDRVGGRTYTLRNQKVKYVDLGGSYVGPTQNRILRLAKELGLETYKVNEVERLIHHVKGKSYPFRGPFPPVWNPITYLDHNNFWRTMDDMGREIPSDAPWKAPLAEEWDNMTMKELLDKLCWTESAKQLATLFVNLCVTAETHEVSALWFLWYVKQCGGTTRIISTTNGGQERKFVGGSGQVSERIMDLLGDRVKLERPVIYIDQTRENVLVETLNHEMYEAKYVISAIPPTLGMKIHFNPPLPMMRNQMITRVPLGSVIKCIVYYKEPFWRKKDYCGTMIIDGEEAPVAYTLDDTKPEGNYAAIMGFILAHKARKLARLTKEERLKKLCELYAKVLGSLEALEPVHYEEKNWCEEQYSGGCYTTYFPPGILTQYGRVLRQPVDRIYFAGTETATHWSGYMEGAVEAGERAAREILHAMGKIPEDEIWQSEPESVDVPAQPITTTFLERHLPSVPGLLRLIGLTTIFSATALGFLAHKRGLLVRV
The experiment in a line: Binding affinity to MAO-B in human brain putamen region at 4 MBq/200 ml after 90 mins by autoradiography analysis. As to conditions: 1.5 h.

Series [5] has as its system Plasma. The experiment in a line: Metabolic stability in cynomolgus monkey plasma assessed as radioactivity remaining at 163 Mbq, iv measured after 45 mins by HPLC analysis. Particulars: in vivo, 0.75 h. Format: ADME, organism-based, Macaca fascicularis.
The test system of series [6] is Plasma. The experiment in a line: Metabolic stability in cynomolgus monkey plasma assessed as radioactivity remaining at 163 Mbq, iv measured after 120 mins by HPLC analysis. Format: ADME, organism-based, Macaca fascicularis. As to conditions: in vivo, 2 h.
Series [7] deals with T1, Amine oxidase [flavin-containing] B. The series can be described thus: Binding affinity to MAO-B in human brain at 4 MBq/200 ml after 90 mins by autoradiography analysis in presence of 10 uM rasagiline. Particulars: 1.5 h.
For series [8] the target is unchanged. The experiment in a line: Binding affinity to MAO-B in human brain at 4 MBq/200 ml after 90 mins by autoradiography analysis in presence of 10 uM L-deprenyl. Particulars: 1.5 h.
For series [9] the target is unchanged. The experiment in a line: Binding affinity to MAO-B in human brain thalamus region at 4 MBq/200 ml after 90 mins by autoradiography analysis. Format: tissue-based. Particulars: 1.5 h.
A short description of series [10]: Drug uptake in cynomolgus monkey striatum at 163 MBq, iv measured up to 120 mins. Format: ADME, organism-based, Macaca fascicularis. As to conditions: in vivo, 2 h.
Series [11] deals with T1, Amine oxidase [flavin-containing] B. The experiment in a line: Binding affinity to MAO-B in human brain at 4 MBq/200 ml after 90 mins by autoradiography analysis in presence of 10 uM pirlindole. As to conditions: 1.5 h.
Series [12] shares this target. The experiment in a line: Binding affinity to MAO-B in human brain external globus pallidus region at 4 MBq/200 ml after 90 mins by autoradiography analysis. Particulars: 1.5 h. Format: tissue-based.
Series [13] has the same target. The experiment in a line: Inhibition of human recombinant MAO-B expressed in insect cells assessed as kynuramine hydrobromide oxidation after 20 mins by spectrophotometric analysis. Format: cell-based.
Series [14] concerns the target T2, Amine oxidase [flavin-containing] A (Homo sapiens, UniProt P21397).
T2 sequence (P21397 whole entry): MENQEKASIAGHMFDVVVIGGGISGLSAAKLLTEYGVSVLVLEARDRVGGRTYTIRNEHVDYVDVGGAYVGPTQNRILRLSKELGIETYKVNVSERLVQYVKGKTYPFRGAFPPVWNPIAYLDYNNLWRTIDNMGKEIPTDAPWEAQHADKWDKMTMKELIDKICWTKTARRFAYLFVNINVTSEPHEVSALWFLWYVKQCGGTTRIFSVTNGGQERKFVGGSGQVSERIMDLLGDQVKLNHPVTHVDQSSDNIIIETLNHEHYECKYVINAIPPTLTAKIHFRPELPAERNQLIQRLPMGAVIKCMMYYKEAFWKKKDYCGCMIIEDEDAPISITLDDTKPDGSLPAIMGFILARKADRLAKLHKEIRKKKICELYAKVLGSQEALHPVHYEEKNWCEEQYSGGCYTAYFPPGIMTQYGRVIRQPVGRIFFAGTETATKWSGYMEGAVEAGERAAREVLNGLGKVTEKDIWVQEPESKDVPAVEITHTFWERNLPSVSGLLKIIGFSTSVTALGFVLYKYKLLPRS
The experiment in a line: Inhibition of human recombinant MAO-A expressed in insect cells assessed as kynuramine hydrobromide oxidation after 20 mins by spectrophotometric analysis.

The target in series [15] is T1, Amine oxidase [flavin-containing] B. The series can be described thus: Binding affinity to MAO-B in human brain caudate nucleus region at 4 MBq/200 ml after 90 mins by autoradiography analysis. Particulars: 1.5 h.
Series [16] concerns Brain. The series can be described thus: Drug uptake in cynomolgus monkey brain at 163 MBq, iv after 4 mins. Format: ADME, organism-based, Macaca fascicularis. As to conditions: in vivo.
Series [17] addresses T1, Amine oxidase [flavin-containing] B. The series can be described thus: Binding affinity to MAO-B in human brain hippocampus region at 4 MBq/200 ml after 90 mins by autoradiography analysis. Format: tissue-based. Particulars: 1.5 h.
The nature of series [18]: Drug uptake in cynomolgus monkey cortex at 163 MBq, iv measured up to 120 mins. Format: ADME, organism-based, Macaca fascicularis. As to conditions: in vivo, 2 h.
Series [19] can be described thus: Chemical stability of the compound in PBS assessed as compound remaining at pH 7.4 after 180 mins. Format: physicochemical. As to conditions: read-out: Stability.
Series [20] relates to Thalamus. The experiment in a line: Drug uptake in cynomolgus monkey thalamus at 163 MBq, iv measured up to 120 mins. Format: ADME, organism-based, Macaca fascicularis. Particulars: in vivo, 2 h.
For series [21], the system named is Plasma. The series can be described thus: Drug metabolism in cynomolgus monkey plasma assessed as [18F]fluoroaminoindan metabolite retention time at 163 Mbq, iv measured by HPLC analysis. Format: ADME, organism-based, Macaca fascicularis. Particulars: in vivo.
Series [22] is described as follows: Drug uptake in cynomolgus monkey cerebellum at 163 MBq, iv measured up to 120 mins. Format: ADME, organism-based, Macaca fascicularis. As to conditions: in vivo, 2 h.
Series [23] concerns Plasma. The experiment in a line: Drug metabolism in cynomolgus monkey plasma assessed as [18F]b metabolite retention time at 163 Mbq, iv measured by HPLC analysis. Format: ADME, organism-based, Macaca fascicularis. As to conditions: in vivo.
Series [24] is filed under the species Homo sapiens. The experiment in a line: Selectivity ratio of IC50 for human recombinant MAO-A to IC50 for human recombinant MAO-B.

Usually IC50 stands for the concentration that gives 50% inhibition. Consider `C#CCN[C@H]1c2ccccc2C[C@@H]1[18F]` [[18F]FLUORORASAGILINE], for which the Time in [1] amounted to 2.7 min; in series [21], 4.6 min; in series [23], 9.2 min. In addition, the Drug uptake result is reported as “Active” in series [2]; “Active” in series [10]; “Not Active” in series [18]; “Active” in series [20]; “Not Active” in [22]. For the same compound, in [3], the Drug metabolism result is recorded as “Active”. The Activity entry is “Active” in [4]; “Not Active” in [7]; “Not Active” in series [8]; “Active” in series [9]; “Active” in series [11]; “Active” in [12]. Also, the result in series [15] and in [17] was Active. Further, the Stability in series [5] is given as 50%; in [6] it was 20%. In addition, the IC50 was 0.027 µM in [13] and 2.3 µM in [14]. In series [16], this compound showed an SUV of 250%. For the same compound, the remaining at 3 h in series [19] is over 97%.
Regarding `C#CCN[C@H]1c2ccccc2C[C@@H]1F`, in [24], the Ratio IC50 is 84.
